Molecules are shown by their SMILES.

These results are taken from patent US9096629B2, “Process of forming iron hydroxypyrone compounds” (Iron Therapeutics Holdings AG, priority 2011, dated 2015).

For data set [1] the following is noted: hydrated ion in aqueous solution; cited from earlier work.
Data set [2] in a line: Solubility in water / aqueous solution. In kind it is physicochemical.
Data set [3] can be described thus: Stability of maltol in hot aqueous solution. It counts as physicochemical. The settings on record: near boiling temperatures.

With `[Cl][Fe]([Cl])[Cl]` [Ferric chloride], the Ka in data set [1] is 7×10^−3.

As to `Cc1occc(=O)c1[O-].Cc1occc(=O)c1[O-].Cc1occc(=O)c1[O-].[Fe+3]` [ferric trimaltol], the “maximum solubility in water” value in data set [2] (water, about 25° C.) is “about 3.5 g/100 ml water”.

Regarding `Cc1occc(=O)c1O` [maltol, 3-hydroxy-2-methyl-4-pyrone], in data set [2] (aqueous alkali hydroxide solutions), the “solubility in aqueous alkali hydroxide solutions” value is on record as “very soluble”. The solubility on heating in data set [2] (heating to near boiling temperatures) was 10 g/100 ml; in data set [2] (water, heating to temperatures above 60° C.), “up to 10 g/100 ml”. Besides, the “solubility at low pH” value in data set [2] (low pH values of iron chloride solutions (pH 1-5)) is “virtually insoluble”. Moreover, the maximum aqueous solubility in data set [2] (water, pH range 6-8, 20° C.) is reported as 1 g/100 ml. For the same compound, the “stability in aqueous solution” value in data set [3] is “stable”.

For the compound `[Cl][Fe][Cl]` [ferrous chloride], the Ka in data set [1] is listed as 5×10^−9.
